One may read the IC50 as the concentration needed to halve the response being measured. One may read the Ki as a dissociation constant, usually derived from enzyme kinetics or from competition with a known ligand. The term EC50 denotes the concentration that produces a half-maximal response.

Read-outs that look alike come from different tables or passages of the source.

This is an account of results in patent US8614206B2 (Genentech, Inc., priority 2011, dated 2013).

One experiment has as its system BaF3 parental cells. The experiment is described as follows: In vitro cell proliferation, BaF3 parental line + IL3 (CellTiter-Glo). The experiment is classed as cell-based, murine. For orientation: In ATP-based viability assays light output follows the ATP content of the culture.
A further experiment has as its system BaF3 PIM1 cells. The experiment is described as follows: cells. The note with it: Mus musculus.
The next experiment addresses PIM1 (Homo sapiens (Human), UniProt P11309). Put plainly: Pim kinase inhibition, PIM1 LC3K (Example 901). The experiment is classed as biochemical.
The subject of experiment [1] is MM1.S (multiple myeloma) cells. The experiment is described as follows: In vitro cell proliferation, MM1.S multiple myeloma cells (CellTiter-Glo, ATP). Format: cell-based. The conditions noted are these: read-out: Prolif MM1S ATP (EC50). As for the experimental part: BaF3, a murine interleukin-3 dependent pro-B cell line, parental cells, BaF3 PIM1 cells, BaF3 PIM2 cells, and MM1.S (multiple myeloma) cells were seeded at 2 k/well, 5 k/well, 5 k/well, and 10 k/well respectively, in a 384-well plate, at 45 μL/well. Test compound was added at 5 μL/well. BaF3 cells (parental and transfected) were incubated overnight, while MM1.S cells were incubated for 72 hours at 37° C., 5% CO2. […] IC50/EC50 values for the test compound were calculated.

Where [2] appears, read: Mus musculus, BaF3, BaF3 parental cells with IL-3, incubated overnight, read-out: Prolif BaF3 + IL3 (IC50).
Where [3] appears, read: BaF3, read-out: Prolif BaF3_PIM1 (IC50), BaF3 PIM1 cells, incubated overnight.
[4] abbreviates: BaF3 parental cells with IL-3, incubated overnight, read-out: Prolif BaF3 + IL3 (IC50).

Sequence of PIM1 (P11309 whole entry): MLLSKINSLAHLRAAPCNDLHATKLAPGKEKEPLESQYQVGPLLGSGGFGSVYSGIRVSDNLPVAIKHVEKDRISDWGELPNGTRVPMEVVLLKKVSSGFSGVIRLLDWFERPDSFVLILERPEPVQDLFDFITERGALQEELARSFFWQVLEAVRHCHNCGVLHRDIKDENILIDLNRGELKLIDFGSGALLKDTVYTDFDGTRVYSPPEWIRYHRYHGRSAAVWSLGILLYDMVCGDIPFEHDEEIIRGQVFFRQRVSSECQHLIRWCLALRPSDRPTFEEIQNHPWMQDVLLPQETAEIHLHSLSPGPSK
Experimental for BaF3 PIM1 cells: BaF3 parental line was obtained from the DSMZ repository. BaF3 lines transfected with PIM 1 or PIM2 were generated. Mouse IL-3 was purchased from R&D Systems. G418 was purchased from Clontech. Media for BaF3 parental line contained RPMI, 10% FBS, 2 mM L-Glutamine, 2 ng/mL mIL-3. Media for BaF3 PIM1 & 2 lines contained RPMI, 10% FBS, 2 mM L-Glutamine, 250 μg/mL.
BaF3, a murine interleukin-3 dependent pro-B cell line, parental cells, BaF3 PIM1 cells, BaF3 PIM2 cells, and MM1.S (multiple myeloma) cells were seeded at 2 k/well, 5 k/well, 5 k/well, and 10 k/well respectively, in a 384-well plate, at 45 μL/well. Test compound was added at 5 μL/well. BaF3 cells (parental and transfected) were incubated overnight, while MM1.S cells were incubated for 72 hours at 37° C., 5% CO2. CELL TITER GLO® Reagent (Promega) was added at 50 μL/well, the plates were incubated for 30 minutes, and their luminescence read on an HT Analyst. IC50/EC50 values for the test compound were calculated.

In the case of `Cn1ncc(NC(=O)c2nc(-c3ccncc3F)sc2N)c1N1CCC(N)CC(F)(F)C1` (racemic) [Example 426, 5-amino-N-[5-(5-amino-3,3-difluoro-azepan-1-yl)-1-methyl-pyrazol-4-yl]-2-(3-fluoro-4-pyridyl)thiazole-4-carboxamide], the IC50 was determined as 24.8 µM with BaF3 parental cells (setting [2]) and 0.0251 µM in the experiment on BaF3 PIM1 cells (setting [3]). The molecule further registered a Ki at PIM1 of 34 pM.
Regarding `Cn1ncc(NC(=O)c2nc(-c3ccccc3F)sc2N)c1N1CCCC(C)(N)CC1` (single isomer, unassigned) [Example 434, 5-amino-N-[5-(4-amino-4-methyl-azepan-1-yl)-1-methyl-pyrazol-4-yl]-2-(2-fluorophenyl)thiazole-4-carboxamide], the IC50 in the experiment with BaF3 parental cells (setting [2]) came to 15.5 µM; with BaF3 PIM1 cells (setting [3]), 1 µM. The molecule also came in with a Ki on PIM1 of 93 pM.
With `Nc1sc(-c2c(F)cccc2F)nc1C(=O)Nc1cnn(CC(F)F)c1N1CCCC[C@H](N)C1` [Example 103, (S)-5-amino-N-(5-(3-aminoazepan-1-yl)-1-(2,2-difluoroethyl)-1H-pyrazol-4-yl)-2-(2,6-difluorophenyl)thiazole-4-carboxamide], the IC50 in the experiment on BaF3 parental cells (Mus musculus, BaF3, BaF3 parental cells with IL-3, incubated overnight, read-out: Prolif BaF3 IL3 (IC50)) came to 8.2 µM; in the experiment with BaF3 PIM1 cells (BaF3, read-out: Prolif BaF3 PIM1 (IC50), BaF3 PIM1 cells, incubated overnight), 4.2 µM. On PIM1, this molecule had a Ki of 83 pM.
Take `Cn1ncc(NC(=O)c2nc(-c3c(F)ccc(I)c3F)sc2N)c1N1CC[C@@H](N)CC(F)(F)C1` [Example 346, 5-amino-N-[5-[(5R)-5-amino-3,3-difluoro-azepan-1-yl]-1-methyl-pyrazol-4-yl]-2-(2,6-difluoro-3-iodo-phenyl)thiazole-4-carboxamide]: the values for the IC50 in the experiment with BaF3 parental cells (setting [2]) and in the experiment with BaF3 PIM1 cells (setting [3]) were 1.2 µM and 1.5 µM, respectively. The molecule further showed a Ki at PIM1 of 2 pM.
The corresponding values for `Cn1ncc(NC(=O)c2nc(-c3c(F)ccc(I)c3F)sc2N)c1N1CC[C@H](N)CC(F)(F)C1` [Example 347, 5-amino-N-[5-[(5S)-5-amino-3,3-difluoro-azepan-1-yl]-1-methyl-pyrazol-4-yl]-2-(2,6-difluoro-3-iodo-phenyl)thiazole-4-carboxamide] are 2.4 µM, 0.0692 µM and 2 pM.
With `CCn1ncc(NC(=O)c2nc(-c3c(F)cccc3F)sc2N)c1N1CC[C@H](N)[C@@H](F)CC1` [Example 348, 5-amino-N-(5-((4S,5S)-4-amino-5-fluoroazepan-1-yl)-1-ethyl-1H-pyrazol-4-yl)-2-(2,6-difluorophenyl)thiazole-4-carboxamide], the IC50 came out at 11.2 µM in the experiment on BaF3 parental cells (setting [2]) and 0.825 µM with BaF3 PIM1 cells (setting [3]). The molecule also came in with a Ki at PIM1 of 109 pM.
For `Cc1cnc(F)c(-c2nc(C(=O)Nc3cnn(C)c3N3CCC[C@H](N)CC3)c(N)s2)c1` [Example 425, 5-amino-N-[5-[(4S)-4-aminoazepan-1-yl]-1-methyl-pyrazol-4-yl]-2-(2-fluoro-5-methyl-3-pyridyl)thiazole-4-carboxamide], in that order: > 25 µM, 2.5 µM and 144 pM.
Consider `Cn1ncc(NC(=O)c2nc(-c3c(F)cccc3F)sc2N)c1N1CCCC(C)(N)CC1` (stereo not drawn) [Example 435, 5-amino-N-[5-(4-amino-4-methyl-azepan-1-yl)-1-methyl-pyrazol-4-yl]-2-(2,6-difluorophenyl)thiazole-4-carboxamide], for which the EC50 in experiment [1] (Homo sapiens, MM1.S, 72 h) worked out at 1.8 µM. The IC50 in the experiment on BaF3 parental cells (setting [2]) was 9.8 µM.
The corresponding values for `C=C1C[C@@H](N)CCN(c2c(NC(=O)c3nc(-c4c(F)cccc4F)sc3N)cnn2C)C1` [Example 449, 5-amino-N-[5-[(5R)-5-amino-3-methylene-azepan-1-yl]-1-methyl-pyrazol-4-yl]-2-(2,6-difluorophenyl)thiazole-4-carboxamide] are 4.2 µM and 8.5 µM.
The corresponding values for `[2H]C([2H])([2H])n1ncc(NC(=O)c2nc(-c3c(F)cccc3F)sc2N)c1N1CC[C@@H](N)[C@H](F)CC1` [Example 451, 5-amino-N-[5-[(4R,5R)-4-amino-5-fluoro-azepan-1-yl]-1-(trideuteriomethyl)pyrazol-4-yl]-2-(2,6-difluorophenyl)thiazole-4-carboxamide] are 0.124 µM and 9.4 µM.
The corresponding values for `CC1CC(N)CCN(c2c(NC(=O)c3nc(-c4c(F)cccc4F)sc3N)cnn2C)C1` (stereo not drawn) [Example 453, 5-amino-N-[5-(5-amino-3-methyl-azepan-1-yl)-1-methyl-pyrazol-4-yl]-2-(2,6-difluorophenyl)thiazole-4-carboxamide] are 3.2 µM and 14.1 µM.
Take `Cn1ncc(NC(=O)c2nc(-c3c(F)cccc3F)sc2N)c1N1CC[C@@H](O)[C@@H](O)CC1` [Example 457, 5-amino-2-(2,6-difluorophenyl)-N-(5-((4R,5S)-4,5-dihydroxyazepan-1-yl)-1-methyl-1H-pyrazol-4-yl)thiazole-4-carboxamide]: the concentration for a half-maximal effect (EC50) in experiment [1] (Homo sapiens, MM1.S, 72 h) is 4 µM. Also, in the experiment on BaF3 parental cells (setting [2]), the IC50 is > 25 µM.
For `Cn1ncc(NC(=O)c2nc(-c3c(F)cccc3F)sc2N)c1N1CCC2(CC1)CNCCO2` [Example 484, 5-amino-2-(2,6-difluorophenyl)-N-[1-methyl-5-(1-oxa-4,9-diazaspiro[5.5]undecan-9-yl)pyrazol-4-yl]thiazole-4-carboxamide], in that order: 13.7 µM and 14.3 µM.
For `COC1(C)CCN(c2c(NC(=O)c3nc(-c4c(F)cccc4F)sc3N)cnn2C)CCC1N` (stereo not drawn) [Example 485, 5-amino-N-[5-(5-amino-4-methoxy-4-methyl-azepan-1-yl)-1-methyl-pyrazol-4-yl]-2-(2,6-difluorophenyl)thiazole-4-carboxamide], in that order: 0.415 µM and 11.6 µM.
For `Cn1ncc(NC(=O)c2nc(-c3c(F)cccc3F)sc2N)c1N1CC[C@@H](O)[C@H](O)CC1` [Example 490, 5-amino-2-(2,6-difluorophenyl)-N-(5-((4R,5R)-4,5-dihydroxyazepan-1-yl)-1-methyl-1H-pyrazol-4-yl)thiazole-4-carboxamide], in that order: 8.8 µM and > 25 µM.
Take `[2H]C([2H])([2H])OC1CCN(c2c(NC(=O)c3nc(-c4c(F)cccc4F)sc3N)cnn2C)CCC1N` (stereo not drawn) [Example 492, 5-amino-N-[5-[4-amino-5-(trideuteriomethoxy)azepan-1-yl]-1-methyl-pyrazol-4-yl]-2-(2,6-difluorophenyl)thiazole-4-carboxamide]: the EC50 in experiment [1] (Homo sapiens, MM1.S, 72 h) was 0.0737 µM. In addition, the IC50 in the experiment with BaF3 parental cells (setting [2]) was 20.4 µM.
For `Cn1ncc(NC(=O)c2nc(-c3c(F)cccc3F)sc2N)c1N1CCC(C)(N)CC(F)(F)C1` (stereo not drawn) [Example 495, 5-amino-N-[5-(5-amino-3,3-difluoro-5-methyl-azepan-1-yl)-1-methyl-pyrazol-4-yl]-2-(2,6-difluorophenyl)thiazole-4-carboxamide], in that order: 0.888 µM and 5.4 µM.
For `CC[C@H]1CN(c2c(NC(=O)c3nc(-c4c(F)cccc4F)sc3N)cnn2C)CC[C@@]1(CN)OC` [Example 496, 5-amino-N-(5-((3S,4R)-4-(aminomethyl)-3-ethyl-4-methoxypiperidin-1-yl)-1-methyl-1H-pyrazol-4-yl)-2-(2,6-difluorophenyl)thiazole-4-carboxamide], in experiment [1] (Homo sapiens, MM1.S, 72 h), the EC50 turned out to be 19.6 µM. The IC50 with BaF3 parental cells (setting [2]) is 11.6 µM.
For `COC1CCC(c2c(NC(=O)c3nc(-c4ccccc4F)sc3N)cnn2C)CCC1N` (stereo not drawn) [Example 504], in that order: 10.5 µM and 15.3 µM.
On to `COC1CCC(c2c(NC(=O)c3nc(-c4ccccc4F)sc3N)cnn2C)CCC1N` (stereo not drawn) [Example 506], for which the EC50 in experiment [1] (72 hours) amounted to 11.7 µM. Further, in the experiment on BaF3 parental cells (setting [4]), the IC50 amounted to 17.1 µM.
With `Cn1ncc(NC(=O)c2nc(-c3c(F)cccc3F)sc2N)c1N1CCCC2(CNC2)C1` [Example 508, 5-amino-N-[5-(2,6-diazaspiro[3.5]nonan-6-yl)-1-methyl-pyrazol-4-yl]-2-(2,6-difluorophenyl)thiazole-4-carboxamide], the EC50 in experiment [1] (Homo sapiens, MM1.S, 72 h) amounted to 3 µM. Moreover, in the experiment on BaF3 parental cells (setting [2]), the IC50 came out at 25 µM.
For `Cn1ncc(NC(=O)c2nc(-c3c(F)cccc3F)sc2N)c1N1CCC(N)C(CO)CC1` (stereo not drawn) [Example 513, 5-amino-N-[5-[4-amino-5-(hydroxymethyl)azepan-1-yl]-1-methyl-pyrazol-4-yl]-2-(2,6-difluorophenyl)thiazole-4-carboxamide], in that order: 7.2 µM and > 25 µM.
Regarding `CCOC1CCN(c2c(NC(=O)c3nc(-c4c(F)cccc4F)sc3N)cnn2C)CCC1N` (stereo not drawn) [Example 514, 5-amino-N-[5-(4-amino-5-ethoxy-azepan-1-yl)-1-methyl-pyrazol-4-yl]-2-(2,6-difluorophenyl)thiazole-4-carboxamide], the EC50 in experiment [1] (72 hours) is 3.1 µM. Further, the IC50 in the experiment with BaF3 parental cells (setting [2]) turned out to be 15.4 µM.
In the case of `CCOC1CCN(c2c(NC(=O)c3nc(-c4c(F)cccc4F)sc3N)cnn2C)CCC1N` (stereo not drawn) [Example 515, 5-amino-N-[5-(4-amino-5-ethoxy-azepan-1-yl)-1-methyl-pyrazol-4-yl]-2-(2,6-difluorophenyl)thiazole-4-carboxamide], in experiment [1] (72 hours), the EC50 stood at 0.0733 µM. Besides, the IC50 in the experiment on BaF3 parental cells (setting [4]) was 14.7 µM.
`CO[C@@H]1CCN(c2c(NC(=O)c3nc(-c4c(F)cccc4F)sc3N)cnn2C)CC2(CC2)[C@@H]1N` [Example 517, 5-amino-N-(5-((8R,9S)-9-amino-8-methoxy-5-azaspiro[2.6]nonan-5-yl)-1-methyl-1H-pyrazol-4-yl)-2-(2,6-difluorophenyl)thiazole-4-carboxamide]: in experiment [1] (Homo sapiens, MM1.S, 72 h), the EC50 amounted to 9.9 µM. Further, the IC50 in the experiment with BaF3 parental cells (setting [2]) stood at 11.9 µM.
